Data published in patent US20140296223A1, “METHOD FOR REGULATING SKIN PIGMENTATION” (THE GENERAL HOSPITAL CORPORATION, priority 2011, published 2014).

Tests used:
[1] = system: Microphthalmia Transcription Factor (MITF); test: TRPM1-luciferase reporter screen for MITF antagonists in Skme15 melanoma cells; type: cell-based, human; settings: for IC50: IC50 (described formally as qAC50), half-maximal suppression dose, unit inferred, text says potencies around 1 uM; for Conc. At Maximal Activity / Maximal Activity: dose titration; for Conc. At Maximal Activity: unit not given, in M (unit assumed); for Maximal Activity: maximal suppression of TRPM1-luciferase at any dose; for Z-Score: screen, suppression of TRPM1-luciferase activity, Skme15 cells
Description: In order to carry out a successful MITF antagonist screen, the inventors utilized a TRPM1-luciferase reporter. […] Therefore, the TRPM1-luciferase reporter stably integrated into melanoma cells is effective for the screening assay. The use of melanoma cells, while less perfectly relevant than primary human melanocytes, afforded the advantages of speed and reproducibility for the screen.
In order to engineer a screen which broadly suppress MITF activity either by suppression of MITF expression or by inhibition of MITF activity, the inventors utilized a luciferase reporter containing the promoter of a strong direct transcriptional target of MITF, i.e., TRPM1 gene, the inventors have identified the active ingredients having the ability of inhibiting the expression or activation of Microphthalmia Transcription Factor (MITF) for medical or esthetic benefit. The inventors have previously identified the TRPM1 gene (also called “Melastatin”) as a direct target of MITF, which contains numerous MITF binding sites, and which directly responds in potent fashion to MITF overexpression (Miller A J, Du J, Rowan S, Hershey C L, Widlund H R, Fisher D E: Transcriptional regulation of the melanoma prognostic marker melastatin (TRPM1) by MITF in melanocytes and melanoma, Cancer Res 2004, 64:509-516). TRPM1 expression also correlates closely to MITF expression within human melanoma cell lines, as well as in clinical pigmented lesions (nevi and melanomas).
The TRPM1 promoter was ligated to the luciferase gene and inserted into a retroviral vector as well as a lentiviral vector. The lentiviral vector was used to infect primary human melanocytes, which then was subjected to a primary screen using the Broad Chemical Genetics core screening facility, and its natural products/extracts libraries. As backup, the retroviral vector was used to stably integrate into the genome of melanoma cells, which can be used for the identical small molecule screen. Screen optimization was carried out using forskolin and MSH as positive control small molecules (which upregulate cAMP and MITF expression (D'Orazio J A, Nobuhisa T, Cui R, Arya M, Spry M, Wakamatsu K, Igras V, Kunisada T, Granter S R, Nishimura E K, Ito S, Fisher D E: Topical drug rescue strategy and skin protection based on the role of Mc1r in UV-induced tanning, Nature 2006, 443:340-344)). Small molecules which suppress MSH induced TRPM1-luciferase without altering cell numbers or viability, represent initial “hits” in this screen. Negative control includes a constitutive luciferase vector within the same cells (eg driven by a constitutive promoter such as thymidine kinase promoter), to control for nonspecific inhibitors of basal transcriptional machinery-something which would otherwise be assessed in detail during secondary/tertiary analyses of candidate hits.
The human melanoma cell line Skme15 was utilized due to the advantageous growth properties as well as the inventors' prior experience that Skme15 expresses a typical level of MITF protein. […] Therefore, an integrated TRPM1-luciferase reporter was generated, and the subsequent cells were cloned twice (serially) to assure purity of the reporter cell population. Cells were maintained in drug selection to assure maintenance of the luciferase reporter (when drug was omitted, eventual loss of the luciferase signal was observed). Following re-cloning, distinct isolates were selected for further use on the basis of clonogenic growth on 384 well plates, as required for the small molecule screen. A positive control for suppression of TRPM1-luciferase signal utilized: a lentivirus encoding shRNA against MITF. […] The day-to-day variability in plating efficiency was analyzed, and found very high reproducibility in the line which was selected for further use in the screen.
The screen was carried out with a library from the Broad Institute comprising a mixture of natural products, known bioactives, and additional compounds (a total of about 13,000 compounds). […]

Skme15 = test: Toxicity with fluorescence viability probe (CellTiter-Fluo Cell Viability Assay); type: cell-based, human; settings: composite of the variation between drug-treated and control divided by the standard error
Procedure: Although the shape of the dose-response can vary among hits, the inventors chose to include all candidates which produce dose-dependent effects. The fourth criterion which was determined is the IC50 (described formally as qAC50) which represents the half-maximal suppression dose. Most of the candidate hits resided in the high nanomolar to low micromolar range by this criterion (all of these validation data are listed in Table 1). The fifth criterion was maximal suppression (at any dose), which represented the magnitude of suppression which was attainable regardless of the dose required to achieve it. […] The sixth criterion to be determined is the Log P partition coefficient, which is a predictor of lipophilicity. For this, the inventors have used the method of Ghose and Crippen to calculate the predicted octanol-water partition coefficient (J. Comp. Chem. 9, 80(1988)). While this is only an estimate of potential skin penetration, the analysis was carried out because it helps in prioritizing likelihood of topical effectiveness, in theory. The seventh criterion was an analysis of toxicity utilizing a fluorescence viability probe (CellTiter-Fluo™ Cell Viability Assay (Promega)). Interpretation of this endpoint is complicated by the fact that it represents a composite of the variation between drug-treated and control divided by the standard error The results shown in Table 1 indicate 34 candidate molecules which satisfied all of the criteria outlined above. […] Most of their potencies ranged slightly below or above 1 uM. While the lipophilicity scores remain imperfect predictors of skin penetration capability. However, numbers of >3 can be more likely to penetrate.

Row | IC50 [1] [µM] | SMILES | Conc. At Maximal Activity [1] | Maximal Activity [1] | Z-Score [1] | Viability z-score (treated minus control, divided by standard error) (Skme15)
1 | 2.48 | Cc1ccc(C23C[C@@H]4C[C@@H](CC(CN)(C4)C2)C3)cc1C [1-[(1S,3R,5R,7S)-3-(3,4-dimethylphenyl)adamantan-1-yl]methanamine] | 6.00E−06 | −149 | −10.8562 | −1.015
2 |  | COc1ccc([N+](=O)[O-])cc1NC(=O)COc1ccc(C(C)(C)C)cc1Br [2-(2-bromo-4-tert-butylphenoxy)-N-(2-methoxy-5-nitrophenyl)acetamide] |  |  | −12.0562 | −1.6406
3 |  | Cc1oc2c(c1C(=O)N1CCC(C)CC1)C(=O)c1ccccc1C2=O [2-methyl-3-[(4-methylpiperidin-1-yl)carbonyl]naphtho[2,3-b]furan-4,9-dione] |  |  | −9.924 | 0.1575
4 |  | O=C(O)CCSc1nc2ccccc2s1 [3-(1,3-benzothiazol-2-ylthio)propanoic acid] |  |  | −9.79 | −1.5092
5 |  | O=C(O)c1cccc(COc2ccc(CO)cc2Cl)c1 [3-{[2-chloro-4-(hydroxymethyl)phenoxy]methyl}benzoic acid] |  |  | −9.909 | −1.5092
6 |  | COc1cc(CO)ccc1OCc1cccc(C(=O)O)c1 [3-{[4-(hydroxymethyl)-2-methoxyphenoxy]methyl}benzoic acid] |  |  | −10.9296 | −1.6406
7 |  | Cc1ccc(OCC(=O)Nc2cccc(C(=O)O)c2)c(Br)c1 [3-{[(2-bromo-4-methylphenoxy)acetyl]amino}benzoic acid] |  |  | −10.0837 | −1.5092
8 |  | CCOc1ccc(OCC(=O)Nc2cccc(C(=O)O)c2)cc1 [3-{[(4-ethoxyphenoxy)acetyl]amino}benzoic acid] |  |  | −9.9 | −1.5092
9 |  | COc1cc(C(=O)Nc2cc(-c3nc4ncccc4o3)ccc2C)ccc1OCc1ccc(Cl)cc1 [4-[(4-chlorobenzyl)oxy]-3-methoxy-N-(2-methyl-5-[1,3]oxazolo[4,5-b]pyridin-2-ylphenyl)benzamide] |  |  | −9.256 | 
10 |  | Clc1ccc(C2=NN=C(N3CCCC3)SC2)cc1 [5-(4-chlorophenyl)-2-pyrrolidin-1-yl-6H-1,3,4-thiadiazine] |  |  | −9.961 | −0.2442
11 |  | CC(C)(C)c1ccc(C(=O)N2CCN(c3ccc([N+](=O)[O-])c(NCc4cccnc4)c3)CC2)cc1 [5-[4-(4-tert-butylbenzoyl)piperazin-1-yl]-2-nitro-N-(pyridin-3-ylmethyl)aniline] |  |  | −9.588 | −0.8893
12 |  | Cc1ccc(C)c(C(Nc2ccccn2)c2cc(Cl)c3cccnc3c2O)c1 (stereo not shown) [5-chloro-7-[(2,5-dimethylphenyl)(pyridin-2-ylamino)methyl]quinolin-8-ol] |  |  | −8.461 | −0.8893
13 |  | Oc1c(C(Nc2ccccn2)c2c(F)cccc2Cl)cc(Cl)c2cccnc12 (stereo not shown) [5-chloro-7-[(2-chloro-6-fluorophenyl)(pyridin-2-ylamino)methyl]quinolin-8-ol] |  |  | −9.327 | −2.226
14 |  | c1ccc(-c2cnc3nonc3n2)cc1 [5-phenyl[1,2,5]oxadiazolo[3,4-b]pyrazine] |  |  | −9.989 | −0.0206
15 |  | O=c1[nH]c(=O)n(Cc2ccco2)c2c1C(C(F)(F)F)(C(F)(F)F)N=C(c1ccc(F)cc1)N2 [7-(4-fluorophenyl)-1-(2-furylmethyl)-5,5-bis(trifluoromethyl)-5,8-dihydropyrimido[4,5-d]pyrimidine-2,4(1H,3H)-dione] |  |  | −8.791 | −2.0352
16 | 5.69 | CC(C)(C)[C@H]1CC[C@@]2(CC1)[C@@H](C#N)[C@]2(C#N)C(=O)c1ccccc1 [(1S,2R,3S,6S)-1-benzoyl-6-tert-butylspiro[2.5]octane-1,2-dicarbonitrile] | 1.95E−05 | −274.1 | −11.0899 | 0.4824
17 |  | CCOC(=O)c1c(C)n(Cc2ccccc2)c2ccc(OCC(O)CNC(C)(C)C)cc12 (stereo not shown) [Ethyl-1-benzyl-5-[3-(tert-butylamino)-2-hydroxypropoxy]-2-methyl-1H-indole-3-carboxylate] |  |  | −7.844 | −2.519
18 |  | CCOC(=O)COc1cccc(-c2nc3ccccc3s2)c1 [Ethyl-[3-(1,3-benzothiazol-2-yl)phenoxy]acetate] |  |  | −9.663 | −0.0206
19 |  | Cc1cccc(-c2nnc(SCC(=O)Nc3ccccc3F)o2)c1 [N-(2-fluorophenyl)-2-{[5-(3-methylphenyl)-1,3,4-oxadiazol-2-yl]thio}acetamide] |  |  | −10.7661 | −0.0206
20 |  | O=C(NCCCc1ccccc1)N1c2ccccc2Sc2ccccc21 [N-(3-phenylpropyl)-10H-phenothiazine-10-carboxamide] |  |  | −9.495 | −4.128
21 |  | O=C(CSc1nc2cc([N+](=O)[O-])ccc2[nH]1)Nc1cc(C(F)(F)F)cc(C(F)(F)F)c1 [N-[3,5-bis(trifluoromethyl)phenyl]-2-[(5-nitro-1H-benzimidazol-2-yl)thio]acetamide] |  |  | −10.0284 | 
22 |  | Cc1ccc2nc(-c3ccc(NC(=O)CSc4nnc(C)s4)cc3)sc2c1 [N-[4-(6-methyl-1,3-benzothiazol-2-yl)phenyl]-2-[(5-methyl-1,3,4-thiadiazol-2-yl)thio]acetamide] |  |  | −9.3543 | 1.032
23 |  | COc1ccc(OC)c(S(=O)(=O)N2CCC(C(=O)Nc3ccc(Cl)c(C(F)(F)F)c3)CC2)c1 [N-[4-chloro-3-(trifluoromethyl)phenyl]-1-[(2,5-dimethoxyphenyl)sulfonyl]piperidine-4-carboxamide] |  |  | −9.871 | −0.2442

Row | SMILES | IC50 [1] [µM] | Conc. At Maximal Activity [1] | Maximal Activity [1] | Z-Score [1] | Viability z-score (treated minus control, divided by standard error) (Skme15)
24 | COc1ccc2c(c1)OC1COc3cc(OC)c(OC)cc3C1C2=O (stereo not shown) [2,3,9-trimethoxy-6a,12a-dihydrochromoeo[3,4-b]chromen-12(6H)-one] | 5.38 | 1.20E−05 | −320.4 | −9.245 | −4.2731
